Entries after “also recorded” stand apart in the source; their conditions may differ.
How the values were obtained:
[1] = target: T1, granzyme B (Homo sapiens, UniProt P10144); experiment: Granzyme B counter-screen; assay type: biochemical; details: at 50 μM
T1 construct: purchased Merck Biosciences Ltd. (Nottingham, UK)
Protocol: Active recombinant caspase-1, -3, -4, -7 and -8 were prepared as described previously. Caspase-2 was purchased from Biomol (Exeter, UK), caspase-6 from BD Biosciences (Oxford, UK), caspase-9 from Europa Bioproducts Ltd. (Cambridge, UK) and caspase-10 from Chemicon International Inc. (Harrow, UK). Cathepsin B and granzyme B were purchased from Merck Biosciences Ltd. (Nottingham, UK). Fluorogenic protease substrates were purchased from Bachem Ltd. (St. Helens, UK). All reactions were carried out at 37°C using a Molecular Devices (Wokingham, UK) Gemini plate-reader at 460 nm (excitation wavelength of 390 nm). Caspase inhibition assays were conducted, with minor modifications, as described by Margolin and colleagues. Irreversible kinetics were analysed by calculations of second-order inactivation rate constants (k) using GraphPad (La Jolla, CA, USA) Prism 4.0 software. A larger number for an inactivation rate constant indicates a greater degree of inactivation. To determine the inhibitory effect on cathepsin B, 4.25 nM of the enzyme were added to 250 μM z-RR-AMC in 10 mM 2-morpholino-ethanesulfonic acid pH 6.0, 1 mM DTT, 1 mM EDTA and 0.03% Brij35 in the presence or absence of VX-166 and the reaction monitored continuously over 15 minutes. Granzyme B was assayed, with minor modifications, as described by Thornberry and colleagues. […]

[2] = system: Jurkat cells; experiment: Anti-Fas induced apoptosis in Jurkat cells, Annexin V; assay type: cell-based, human; details: Anti-Fas, Human Jurkat cell line/Annexin V, 18 hours, n = 4; read-out: IC50, inhibition of apoptosis
Protocol: Jurkat cells were obtained from LGC Standards (Teddington, UK) and were grown in RPMI 1640, 10% FCS, 2 mM L-glutamine, 100 U/ml penicillin and 0.1 mg/ml streptomycin (all from Sigma Aldrich Ltd., Poole, UK) at 37°C in 5% CO2/95% humidity. Receptor- or stress-mediated apoptosis (2 × 10^5 cells/ml) was induced by addition of either anti-Fas antibody CH-11 (10 ng/ml, Millipore UK Ltd., Watford, UK), TNF-α (20 ng/ml, R&D Systems, Abingdon, UK) with cycloheximide (112 ng/ml, Sigma Aldrich Ltd., Poole, UK) or staurosporine (350 ng/ml, Sigma Aldrich Ltd., Poole, UK). VX-166 was diluted into DMSO (10 mM), further diluted in media and added at a range of concentrations. Cells were then incubated for 18 hours. Apoptotic cells were then labelled with Cy5-conjugated Annexin-V (BD Biosciences, Oxford, UK) and detected using a FMAT™ 8100 Fluorimetric Microassay Technology Reader (Applied Biosystems, Warrington, UK). For the experiments using anti-Fas antibody, apoptosis was additionally measured using a Cell Death Detection ELISA kit (Roche Diagnostics Ltd., Lewes, UK) following the manufacturer's instructions.

[3] = system: Sprague-Dawley rats; experiment: CLP rat, thymus weight; assay type: in vivo; details: 25 mg/ml pump, P < 0.01
Protocol: CLP studies were performed in accordance with the National Institutes of Health guidelines for the use of experimental animals and were approved by the Institutional Animal Care and Use Committee of the Feinstein Institute for Medical Research. Adult male Sprague-Dawley rats (weighing 275 to 325 g, Charles River Laboratories, Wilmington, MA, USA) were fasted overnight then anaesthetised with isoflurane. The caecum was exposed via a 2 cm midline incision. It was ligated just distal to the ileocaecal valve, then punctured twice with an 18-gauge needle and gently squeezed to release a small amount of faecal material to ensure patency of the perforation sites before the abdominal incision was closed. Sham-operated rats underwent the same procedure with the exception that the caecum was neither ligated nor punctured. Animals received subcutaneous fluids (30 ml/kg saline) immediately after the procedure. No antibiotics were administered. In the 7 and 10 day survival studies animals were re-anaesthetised 20 hours after CLP, the perforated caecum was removed and the abdominal cavity washed twice with 40 ml of warm, sterilised saline. The abdominal cavity was closed, anaesthetics withdrawn and rats returned to their cages where they were allowed free access to food and water. In the 20 hour endpoint study the caecum was not removed. […]

[4] = CLP rat, plasma endotoxin by LAL kit; assay type: in vivo; details: 20 hours, 25 mg/ml pump, n = 10, P < 0.05
Protocol: CLP studies were performed in accordance with the National Institutes of Health guidelines for the use of experimental animals and were approved by the Institutional Animal Care and Use Committee of the Feinstein Institute for Medical Research. Adult male Sprague-Dawley rats (weighing 275 to 325 g, Charles River Laboratories, Wilmington, MA, USA) were fasted overnight then anaesthetised with isoflurane. The caecum was exposed via a 2 cm midline incision. It was ligated just distal to the ileocaecal valve, then punctured twice with an 18-gauge needle and gently squeezed to release a small amount of faecal material to ensure patency of the perforation sites before the abdominal incision was closed. Sham-operated rats underwent the same procedure with the exception that the caecum was neither ligated nor punctured. […]
Blood samples were centrifuged at 1500 g for 15 minutes at 4°C, the plasma was removed and stored at -80°C until analysis. Plasma IL-1β levels were determined by ELISA (R&D Systems Inc., Minneapolis, MN, USA) following the manufacturer's instructions. Plasma endotoxin levels were determined using a Limulus amebocyte lysate (LAL) kit (Associates of Cape Cod, Inc., East Falmouth, MA, USA) according to the manufacturer's instruction. […] The optical density was determined at 405 nm using a spectrophotometer. The levels of endotoxin were then calculated and expressed as EU/ml.

T1 sequence (P10144 21-247, species assumed): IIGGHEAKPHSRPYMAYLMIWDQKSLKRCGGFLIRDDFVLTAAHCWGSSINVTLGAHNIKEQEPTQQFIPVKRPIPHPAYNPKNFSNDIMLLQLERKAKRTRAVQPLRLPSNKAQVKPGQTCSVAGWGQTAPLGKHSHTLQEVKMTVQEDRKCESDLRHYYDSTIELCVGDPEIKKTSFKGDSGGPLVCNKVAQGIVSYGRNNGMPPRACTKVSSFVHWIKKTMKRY

CCC(C(=O)NC(CC(=O)O)C(=O)COc1c(F)c(F)cc(F)c1F)n1cccc(NC(=O)OC)c1=O (stereo not shown) [VX-166]
inhibitory activity against granzyme B [1]: did not show any inhibitory activity
IC50 [2]: 0.027 ± 0.009 µM
thymus weight of surviving rats on day 10 vs control [3]: significantly higher weight
plasma endotoxin level vs vehicle CLP [4]: reduced plasma endotoxin levels; also recorded: reduced the level of endotoxin
